# Laboratory results from patent publication US11291630B2, “Gelling compositions for treating malignant tumours and/or preventing tumour recurrence” (Centre National de la Recherche Scientifique (CNRS), priority 2015, dated 2022).
# Experiment: Measurement of gelation temperature by DSC and rheology (Example 1)
# Type: physicochemical
# Conditions: addition of 0.5% 5-FU to gel P407/P188/Alginate (20/2/1) (FIG. 2)
# Protocol: The gelation temperature (Tgel) was determined by Differential Scanning calorimetry (DSC) and rheology.
# By DSC: between 20-35 mg of the solution were sealed in aluminium pans and placed into the DSC instrument (DSC 1, Mettler Toledo). An empty aluminium pan (size: 40 μL) served as a reference sample. The instrument was equilibrated at 5° C. for 7 min prior to initiation of the scans. The sample was then heated to 40° C. at a heating rate of 5° C./min. Data analysis was performed with the software preinstalled in the instrument (STARe Software). The gelation temperature was determined as the small enthalpy change which was visible around at 10-12° C. above the big endothermic peak caused by micellization of the poloxamers, as already done in other studies (Nie et al, Int. J. Nanomedicine. 6 (2011) 151-166. doi:10.2147/IJN.S15057).
# By rheology: a deformation was applied and varied between 0.01 to 100% at a fixed frequency of 1 Hz with a cone/plan mobile with an angle of 1°, a diameter of 50 mm and with a gap of 0.1 mm. The sample was left at room temperature for 1 hour, then approximately 750 μL was loaded on the pelletier plan which is submitted to a temperature increase. The viscoelastic moduli G′ and G″ are measured. The gelation temperature corresponds to the curve intersections.
structure (smiles),measurement,value
"O=c1[nH]cc(F)c(=O)[nH]1 [Composition 5-FU, 5-Fluorouracil]",increase of the gelation temperature,2 °C
